Here are results for 22 compounds from patent US9714236B2, “Compounds and methods for inhibiting JAK” (AstraZeneca AB, priority 2015, dated 2017).

Format in all cases: biochemical
Test [1] addresses recombinant JAK1 (amino acids 866-1154) (Homo sapiens (Human), UniProt P23458). The experiment in a line: Enzyme inhibition studies, JAK1 (peptide phosphorylation, Caliper LC3000). The note with it: ATP concentration not given (assayed at ATP Km 55 μM and at 5 mM). Here is the method: (§1) Enzyme inhibition studies were performed using recombinant JAK1 (amino acids 866-1154, Life Technologies, #PV4774, Carlsbad, Calif.), JAK2 (amino acids 831-1132), or JAK3 (amino acids 781-1124) under buffer conditions of 50 mM HEPES pH 7.3, 1 mM DTT, 0.01% Tween® 20, 50 μg/mL BSA, and 10 mM MgCl2. JAK enzyme was expressed as an N-terminal GST fusion in insect cells and purified by glutathione-affinity and size-exclusion chromatographies. […] Phosphorylated and unphosphorylated peptides were separated and quantified by a Caliper LC3000 system (Caliper Life Sciences, MA) for calculating percent inhibition.

Test [2] deals with recombinant JAK3 (amino acids 781-1124) (Homo sapiens (Human), UniProt P52333). The experiment in a line: Enzyme inhibition studies, JAK3 (peptide phosphorylation, Caliper LC3000). The note with it: ATP concentration of the tabulated values not stated (assayed at ATP Km 3 μM and at 5 mM). Here is the method:
as §1

Test [3] addresses recombinant JAK2 (amino acids 831-1132) (Homo sapiens (Human), UniProt O60674). Nature of the test: Enzyme inhibition studies, JAK2 (peptide phosphorylation, Caliper LC3000). The note with it: ATP concentration of the tabulated values not stated (assayed at ATP Km 15 μM and at 5 mM). How it is done: as §1

Chain of recombinant JAK1 (amino acids 866-1154) (P23458 866-1154): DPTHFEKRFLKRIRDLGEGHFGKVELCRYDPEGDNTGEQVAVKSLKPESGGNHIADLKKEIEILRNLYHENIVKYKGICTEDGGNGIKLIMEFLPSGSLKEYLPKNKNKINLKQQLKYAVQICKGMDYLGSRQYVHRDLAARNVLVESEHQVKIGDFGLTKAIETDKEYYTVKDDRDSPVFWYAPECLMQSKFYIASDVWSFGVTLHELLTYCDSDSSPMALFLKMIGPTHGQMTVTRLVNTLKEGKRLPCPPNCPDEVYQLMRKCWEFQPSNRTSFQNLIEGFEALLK
Chain of recombinant JAK2 (amino acids 831-1132) (O60674 831-1132): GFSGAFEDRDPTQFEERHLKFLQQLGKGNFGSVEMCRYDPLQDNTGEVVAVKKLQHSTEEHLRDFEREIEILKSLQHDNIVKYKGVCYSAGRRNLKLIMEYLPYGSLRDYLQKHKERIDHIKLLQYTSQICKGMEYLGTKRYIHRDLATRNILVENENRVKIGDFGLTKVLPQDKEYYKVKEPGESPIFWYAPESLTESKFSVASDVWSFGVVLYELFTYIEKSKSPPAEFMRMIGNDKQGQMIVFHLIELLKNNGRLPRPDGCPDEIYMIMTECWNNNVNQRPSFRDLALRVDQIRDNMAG
Chain of recombinant JAK3 (amino acids 781-1124) (P52333 781-1124): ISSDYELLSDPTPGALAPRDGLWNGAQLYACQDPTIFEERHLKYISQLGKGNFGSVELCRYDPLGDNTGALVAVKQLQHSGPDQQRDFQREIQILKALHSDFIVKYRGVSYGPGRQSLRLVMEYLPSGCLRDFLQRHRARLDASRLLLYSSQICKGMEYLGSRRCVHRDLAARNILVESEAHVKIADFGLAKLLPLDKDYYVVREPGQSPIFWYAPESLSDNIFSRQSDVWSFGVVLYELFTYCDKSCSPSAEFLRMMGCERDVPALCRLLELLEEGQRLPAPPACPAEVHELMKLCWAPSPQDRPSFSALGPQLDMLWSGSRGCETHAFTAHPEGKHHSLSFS

For orientation: IC50 means the concentration that inhibits the measured activity by half. For `COc1nn(C)cc1Nc1nccc(-c2c[nH]c3c(NC(=O)[C@@H](C)N4CCN(C)C[C@@H]4C)cccc23)n1` [Example 1, (2R)-2-[(2S)-2,4-dimethylpiperazin-1-yl]-N-(3-{2-[(3-methoxy-1-methyl-1H-pyrazol-4-yl)amino]pyrimidin-4-yl}-1H-indol-7-yl)propanamide], in test [1], the IC50 was 0.847 µM.
Turning to `COc1nn(C)cc1Nc1ncc(F)c(-c2c[nH]c3c(NC(=O)[C@@H](C)N4CCN(C)[C@H](C)C4)cccc23)n1` [Example 2, (2R)-2-[(3R)-3,4-dimethylpiperazin-1-yl]-N-(3-{5-fluoro-2-[(3-methoxy-1-methyl-1H-pyrazol-4-yl)amino]pyrimidin-4-yl}-1H-indol-7-yl)propanamide], the concentration for half-maximal inhibition (IC50) in test [2] is more than 30 µM; in test [3] it was 12.8 µM; in test [1] it was 0.085 µM.
For the compound `COCCN1CCN([C@H](C)C(=O)Nc2cccc3c(-c4nc(Nc5cn(C)nc5OC)ncc4F)c[nH]c23)CC1` [Example 3, (2R)-N-(3-{5-fluoro-2-[(3-methoxy-1-methyl-1H-pyrazol-4-yl)amino]pyrimidin-4-yl}-1H-indol-7-yl)-2-[4-(2-methoxyethyl)piperazin-1-yl]propanamide], the 50% inhibitory concentration (IC50) was more than 30 µM in test [2], 26.8 µM in test [3] and 0.191 µM in test [1].
The like results for `CCN1CCN([C@H](C)C(=O)Nc2cccc3c(-c4nc(Nc5cn(C)nc5OC)ncc4F)c[nH]c23)CC1` [Example 4, (2R)-2-(4-ethylpiperazin-1-yl)-N-(3-{5-fluoro-2-[(3-methoxy-1-methyl-1H-pyrazol-4-yl)amino]pyrimidin-4-yl}-1H-indol-7-yl)propanamide] were, in that order, more than 30 µM, 6.57 µM and 0.043 µM.
The like results for `COc1nn(C)cc1Nc1ncc(F)c(-c2c[nH]c3c(NC(=O)[C@@H](C)N4CCN(C)[C@@H](C)C4)cccc23)n1` [Example 5, (2R)-2-[(3S)-3,4-dimethylpiperazin-1-yl]-N-(3-{5-fluoro-2-[(3-methoxy-1-methyl-1H-pyrazol-4-yl)amino]pyrimidin-4-yl}-1H-indol-7-yl)propanamide] were, in that order, more than 30 µM, 10.4 µM and 0.024 µM.
The corresponding values for `COc1nn(C)cc1Nc1ncc(F)c(-c2c[nH]c3c(NC(=O)[C@@H](C)N4CCN(C)C[C@H]4C)cccc23)n1` [Example 6] are more than 30 µM, 9.62 µM and 0.03 µM.
Consider `COc1nn(C)cc1Nc1ncc(F)c(-c2c[nH]c3c(NC(=O)[C@@H](C)N4CCN(C)C[C@@H]4C)cccc23)n1` [Example 7a, (2R)-2-[(2S)-2,4-dimethylpiperazin-1-yl]-N-(3-{5-fluoro-2-[(3-methoxy-1-methyl-1H-pyrazol-4-yl)amino]pyrimidin-4-yl}-1H-indol-7-yl)propanamide], for which the IC50 is more than 30 µM in test [2], more than 30 µM in test [3] and 0.359 µM in test [1].
For `COc1nn(C)cc1Nc1ncc(F)c(-c2c[nH]c3c(NC(=O)[C@H](C)N4CCN(C)C[C@@H]4C)cccc23)n1` [Example 7b, (2S)-2-[(2S)-2,4-dimethylpiperazin-1-yl]-N-(3-{5-fluoro-2-[(3-methoxy-1-methyl-1H-pyrazol-4-yl)amino]pyrimidin-4-yl}-1H-indol-7-yl)propanamide], the results for the 50% inhibitory concentration (IC50) in test [2], in test [3] and in test [1] were more than 30 µM, more than 30 µM and 3.6 µM, respectively.
For `CCOc1nn(C)cc1Nc1ncc(F)c(-c2c[nH]c3c(NC(=O)[C@@H](C)N4CCN(CC)CC4)cccc23)n1` [Example 8, (2R)-N-(3-{2-[(3-ethoxy-1-methyl-1H-pyrazol-4-yl)amino]-5-fluoropyrimidin-4-yl}-1H-indol-7-yl)-2-(4-ethylpiperazin-1-yl)propanamide], the IC50 is more than 30 µM in test [2], 23.6 µM in test [3] and 0.11 µM in test [1].
In the case of `CCOc1nn(C)cc1Nc1ncc(F)c(-c2c[nH]c3c(NC(=O)[C@@H](C)N4CCN(CCOC)CC4)cccc23)n1` [Example 9, (2R)-N-(3-{2-[(3-ethoxy-1-methyl-1H-pyrazol-4-yl)amino]-5-fluoropyrimidin-4-yl}-1H-indol-7-yl)-2-[4-(2-methoxyethyl)piperazin-1-yl]propanamide], the half-maximal inhibitory concentration (IC50) was more than 30 µM in test [2], more than 30 µM in test [3] and 0.426 µM in test [1].
`CCOc1nn(C)cc1Nc1ncc(F)c(-c2c[nH]c3c(NC(=O)[C@@H](C)N4CCN(C)C[C@@H]4C)cccc23)n1` [Example 10a, (2R)-2-[(2S)-2,4-dimethylpiperazin-1-yl]-N-(3-{2-[(3-ethoxy-1-methyl-1H-pyrazol-4-yl)amino]-5-fluoropyrimidin-4-yl}-1H-indol-7-yl)propanamide]: in test [1], the IC50 worked out at 0.846 µM.
Same read-out and setting: the figure for `CCOc1nn(C)cc1Nc1ncc(F)c(-c2c[nH]c3c(NC(=O)[C@H](C)N4CCN(C)C[C@@H]4C)cccc23)n1` [Example 10b, (2S)-2-[(2S)-2,4-dimethylpiperazin-1-yl]-N-(3-{2-[(3-ethoxy-1-methyl-1H-pyrazol-4-yl)amino]-5-fluoropyrimidin-4-yl}-1H-indol-7-yl)propanamide] is 7.6 µM.
With `CCOc1nn(C)cc1Nc1ncc(F)c(-c2c[nH]c3c(NC(=O)[C@@H](C)N4CCN(C)[C@@H](C)C4)cccc23)n1` [Example 11a, (2R)-2-[(3S)-3,4-dimethylpiperazin-1-yl]-N-(3-{2-[(3-ethoxy-1-methyl-1H-pyrazol-4-yl)amino]-5-fluoropyrimidin-4-yl}-1H-indol-7-yl)propanamide], the values for the IC50 in test [2], in test [3] and in test [1] were more than 30 µM, more than 30 µM and 0.04 µM, respectively.
For the compound `CCOc1nn(C)cc1Nc1ncc(F)c(-c2c[nH]c3c(NC(=O)[C@H](C)N4CCN(C)[C@@H](C)C4)cccc23)n1` [Example 11b, (2S)-2-[(3S)-3,4-dimethylpiperazin-1-yl]-N-(3-{2-[(3-ethoxy-1-methyl-1H-pyrazol-4-yl)amino]-5-fluoropyrimidin-4-yl}-1H-indol-7-yl)propanamide], the IC50 in test [2] was more than 30 µM; in test [3] it was more than 30 µM; in test [1] it was 1.85 µM.
Consider `CCOc1nn(C)cc1Nc1ncc(F)c(-c2c[nH]c3c(NC(=O)[C@@H](C)N4CCN(C)C[C@H]4C)cccc23)n1` [Example 12, (2R)-2-[(2R)-2,4-dimethylpiperazin-1-yl]-N-(3-{2-[(3-ethoxy-1-methyl-1H-pyrazol-4-yl)amino]-5-fluoropyrimidin-4-yl}-1H-indol-7-yl)propanamide], for which the IC50 in test [1] was found to be 0.068 µM.
With `CCOc1nn(C)cc1Nc1ncc(F)c(-c2c[nH]c3c(NC(=O)[C@@H](C)N4CCN(C)[C@H](C)C4)cccc23)n1` [Example 13, (2R)-2-[(3R)-3,4-dimethylpiperazin-1-yl]-N-(3-{2-[(3-ethoxy-1-methyl-1H-pyrazol-4-yl)amino]-5-fluoropyrimidin-4-yl}-1H-indol-7-yl)propanamide], the concentration for half-maximal inhibition (IC50) was more than 30 µM in test [2], more than 30 µM in test [3] and 0.166 µM in test [1].
In the case of `COc1nn(C)cc1Nc1ncc(C)c(-c2c[nH]c3c(NC(=O)[C@@H](C)N4CCN(C)[C@@H](C)C4)cccc23)n1` [Example 14, (2R)-2-[(3S)-3,4-dimethylpiperazin-1-yl]-N-(3-{2-[(3-methoxy-1-methyl-1H-pyrazol-4-yl)amino]-5-methylpyrimidin-4-yl}-1H-indol-7-yl)propanamide], the IC50 in test [2] is more than 30 µM; in test [3], 6.39 µM; in test [1], 0.009 µM.
Regarding `COc1nn(C)cc1Nc1ncc(C)c(-c2c[nH]c3c(NC(=O)[C@@H](C)N4CCN(CCO)CC4)cccc23)n1` [Example 15, (2R)-2-[4-(2-hydroxyethyl)piperazin-1-yl]-N-(3-{2-[(3-methoxy-1-methyl-1H-pyrazol-4-yl)amino]-5-methylpyrimidin-4-yl}-1H-indol-7-yl)propanamide], the IC50 in test [2] was more than 30 µM; in test [3] it was 2.53 µM; in test [1], 0.007 µM.
The corresponding values for `CCN1CCN([C@H](C)C(=O)Nc2cccc3c(-c4nc(Nc5cn(C)nc5OC)ncc4C)c[nH]c23)CC1` [Example 16, (2R)-2-(4-ethylpiperazin-1-yl)-N-(3-{2-[(3-methoxy-1-methyl-1H-pyrazol-4-yl)amino]-5-methylpyrimidin-4-yl}-1H-indol-7-yl)propanamide] are more than 30 µM, 6.24 µM and 0.019 µM.
For the compound `COc1nn(C)cc1Nc1nccc(-c2c[nH]c3c(NC(=O)[C@@H](C)N4CCN(C)C[C@H]4C)cccc23)n1` [Example 29, (2R)-2-[(2R)-2,4-dimethylpiperazin-1-yl]-N-(3-{2-[(3-methoxy-1-methyl-1H-pyrazol-4-yl)amino]pyrimidin-4-yl}-1H-indol-7-yl)propanamide], in test [1], the IC50 was 0.097 µM.
On to `CC[C@H](C(=O)Nc1cccc2c(-c3nc(Nc4cn(C)nc4OC)ncc3F)c[nH]c12)N1CCN(C)CC1` [Example 51, (2R)-N-(3-{5-fluoro-2-[(3-methoxy-1-methyl-1H-pyrazol-4-yl)amino]pyrimidin-4-yl}-1H-indol-7-yl)-2-(4-methylpiperazin-1-yl)butanamide], for which the IC50 in test [1] is less than 0.003 µM.
The same measure, in the same setting: the figure for `CC[C@@H](C(=O)Nc1cccc2c(-c3nc(Nc4cn(C)nc4OC)ncc3F)c[nH]c12)N1CCN(C)CC1` [Example 52, (2S)-N-(3-{5-fluoro-2-[(3-methoxy-1-methyl-1H-pyrazol-4-yl)amino]pyrimidin-4-yl}-1H-indol-7-yl)-2-(4-methylpiperazin-1-yl)butanamide] is 0.296 µM.
